Earlier results in patent US8389574B2, “Method useful for the prevention of type 2 diabetes and its complications in pre-diabetic patients with insulin resistance” (Sigma-Tau Industrie Farmaceutiche Riunite S.p.A., priority 2007, dated 2013).

Conditions: DPP participants at high risk for IGT and type 2 diabetes; over 3 years

In the case of CN(C)C(=N)N=C(N)N [metformin], the “Reduction of risk of getting type 2 diabetes” value is given as 31%.
